The source made the active and inactive calls. The calls are words filed in the database; no cut-off is given here.
Tested on: Nippostrongylus brasiliensis
Assay: Antihelminthic activity against L4 parasitant stage of Nippostrongylus brasiliensis
Format: functional, organism-based

| EC50 | SMILES | Activity |
| --- | --- | --- |
|  | C[C@@H]1CC[C@]23[C@H]1CC[C@@]2(C)C[C@H](C)[C@]3(C)O | inactive |
|  | C[C@@H]1CC[C@]23[C@H]1CC[C@@]2(C)C[C@@](C)(O)[C@H]3C | inactive |
|  | C=C(C)C(O)CCC(=C)[C@]1(O)CC[C@](C)(Br)[C@@H](Cl)C1 (relative stereo) | inactive |
| 110 µM | C=C(C[C@H](O)C=C(C)C)[C@@]1(O)CC[C@](C)(Br)[C@@H](Cl)C1 |  |
|  | C=C(C)C(O)CCC(=C)[C@@]1(O)CC[C@](C)(Br)[C@@H](Cl)C1 (relative stereo) | inactive |

— ChEMBL document CHEMBL1158029, “Bisabolanes from the red alga Laurencia scoparia” (J Nat Prod, 2006)
